Among the test systems are DLD-1 colon; DMS 114 small cell lung; DMS 273 small cell lung; HOP-18 NSCLC; LXFL 529 NSCLC; M19-MEL melanoma; SNB-78 CNS; XF 498 CNS; RXF-631 renal.
Test in all cases: NCI tumour cell line growth inhibition, 48 h

The record followed here is PubChem BioAssay (NCI).

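Cultured in 96-well plates, cells were exposed to test compound for 48 hours across five concentrations. The concentration for full growth arrest is given as TGI.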

Take `Clc1ccc2c(c1)C1C(CO2)C(c2ccccc2)=NN1c1ccccc1` (stereo unspecified): the TGI in the experiment on DLD-1 colon was more than 100 µM; in the experiment on DMS 114 small cell lung it was 77.5 µM; in the experiment with DMS 273 small cell lung, 88.7 µM; with HOP-18 NSCLC it was 50.8 µM; in the experiment on LXFL 529 NSCLC, more than 100 µM; in the experiment on M19-MEL melanoma it was more than 100 µM. Further, the figures for the TGI with SNB-78 CNS and with XF 498 CNS were more than 100 µM and 59 µM, respectively.

As to `Nc1ccc2nc(Nc3ccc(F)cc3)cnc2c1`, the TGI in the experiment with DLD-1 colon, in the experiment with DMS 114 small cell lung, in the experiment on DMS 273 small cell lung, in the experiment on M19-MEL melanoma and with XF 498 CNS was more than 100 µM in each case.

In the case of `COc1ccc(C(=O)Cc2c(C(=O)c3ccccc3)c3ccccc3n2C(=O)c2ccccc2)cc1`, the TGI with DLD-1 colon, in the experiment on DMS 114 small cell lung, with DMS 273 small cell lung, in the experiment with LXFL 529 NSCLC, in the experiment with M19-MEL melanoma and with XF 498 CNS was more than 100 µM in each case.

As to `CC(C)c1ccc(C2C3=C(N=C4SCC(=O)N42)C(=O)c2ccccc23)cc1` (stereo unspecified), the TGI with DLD-1 colon, in the experiment on DMS 114 small cell lung, in the experiment with DMS 273 small cell lung, in the experiment on LXFL 529 NSCLC, with M19-MEL melanoma and with RXF-631 renal was more than 100 µM each time. In the experiment with XF 498 CNS, this compound gave a TGI of more than 100 µM.

As to `COc1cccc(NC(=O)/C(CC(=O)CC(c2ccccc2)c2c(O)c3ccccc3oc2=O)=N\NC(C)(C)C)c1OC` (stereo unspecified), the TGI in the experiment on DLD-1 colon, in the experiment on DMS 114 small cell lung, in the experiment with LXFL 529 NSCLC, in the experiment on M19-MEL melanoma and in the experiment on SNB-78 CNS was more than 100 µM in each case.

With `CC(=O)OC[C@]1(O)CC[C@@]23CC1C[C@@H]2CCC1C(C)(C)CCC[C@@]13C` (stereo partly specified), the TGI with DLD-1 colon stood at 28.8 µM; with DMS 114 small cell lung, 25.3 µM; with DMS 273 small cell lung, 12.7 µM; in the experiment with LXFL 529 NSCLC, 23.2 µM; in the experiment with M19-MEL melanoma, 29.4 µM; with RXF-631 renal, 27.3 µM. The TGI in the experiment on SNB-78 CNS turned out to be 32.7 µM; in the experiment on XF 498 CNS, 27.2 µM.

As for `O=C1CCC(=O)N1Cc1ccccc1N=[N+]([O-])c1ccccc1CN1C(=O)CCC1=O`, the TGI with DMS 114 small cell lung, in the experiment on DMS 273 small cell lung, in the experiment with LXFL 529 NSCLC, in the experiment with M19-MEL melanoma, in the experiment on SNB-78 CNS and in the experiment on XF 498 CNS was more than 100 µM throughout.

In the case of `CC(=O)OC1COC(Nc2ccc(C(C)=O)cc2)C(OC(C)=O)C1OC(C)=O` (stereo unspecified), the TGI in the experiment on DLD-1 colon, in the experiment with DMS 114 small cell lung, with DMS 273 small cell lung, in the experiment on HOP-18 NSCLC, in the experiment with LXFL 529 NSCLC and in the experiment on M19-MEL melanoma was more than 100 µM each time. Also, the TGI in the experiment on RXF-631 renal and in the experiment on SNB-78 CNS was more than 100 µM in each case.

On to `Cc1cc2nc(CCC(=O)O)c(=O)[nH]c2cc1C`, for which the TGI with DLD-1 colon, with DMS 114 small cell lung, in the experiment on HOP-18 NSCLC, in the experiment on LXFL 529 NSCLC, in the experiment on M19-MEL melanoma and with RXF-631 renal was more than 100 µM throughout. For the same compound, the TGI with SNB-78 CNS and in the experiment with XF 498 CNS was more than 100 µM throughout.

As for `COC(=O)N1CCc2c(nc(N(C)CCO)[nH]c2=O)C1`, the TGI with DLD-1 colon, with DMS 114 small cell lung, with DMS 273 small cell lung, in the experiment on HOP-18 NSCLC, in the experiment with LXFL 529 NSCLC and with M19-MEL melanoma was more than 100 µM throughout. The TGI in the experiment on SNB-78 CNS and in the experiment with XF 498 CNS was more than 100 µM throughout.

Consider `N#C/C(=C/c1ccc[nH]1)P(=O)(O)O`, for which the TGI with DLD-1 colon, in the experiment on DMS 114 small cell lung, in the experiment on DMS 273 small cell lung, with LXFL 529 NSCLC, with M19-MEL melanoma and in the experiment with SNB-78 CNS was more than 100 µM in each case. In the experiment on XF 498 CNS, this compound displayed a TGI of more than 100 µM.
